# Columns and labels:
# [1] = Downregulation of SREBP-1c mRNA expression in human HepG2 cells at 10 uM pretreated with compound for 30 mins followed by T0901317 addition and measured after 12 hrs by RT-qPCR analysis relative to control; format: functional; details: time 12.5 hrs
# HepG2 = experiment: Cytotoxicity against human HepG2 cells at 10 uM measured after 24 hrs by CCK-8 method relative to control; format: functional
# [2] = biological target: T1, Sterol regulatory element-binding protein 1 (Homo sapiens) (UniProt P36956); experiment: Inhibition of SREBP-1c transcriptional activity in human HepG2 cells expressing LXRalpha/RXRalpha assessed as reduction in SRE-luciferase level at 10 uM pretreated with compound for 30 mins followed by T0901317 addition and measured after 12 hrs by Dual-Glo luciferase assay relative to control; format: cell-based; details: time 12.5 hrs
# T1 sequence (whole entry): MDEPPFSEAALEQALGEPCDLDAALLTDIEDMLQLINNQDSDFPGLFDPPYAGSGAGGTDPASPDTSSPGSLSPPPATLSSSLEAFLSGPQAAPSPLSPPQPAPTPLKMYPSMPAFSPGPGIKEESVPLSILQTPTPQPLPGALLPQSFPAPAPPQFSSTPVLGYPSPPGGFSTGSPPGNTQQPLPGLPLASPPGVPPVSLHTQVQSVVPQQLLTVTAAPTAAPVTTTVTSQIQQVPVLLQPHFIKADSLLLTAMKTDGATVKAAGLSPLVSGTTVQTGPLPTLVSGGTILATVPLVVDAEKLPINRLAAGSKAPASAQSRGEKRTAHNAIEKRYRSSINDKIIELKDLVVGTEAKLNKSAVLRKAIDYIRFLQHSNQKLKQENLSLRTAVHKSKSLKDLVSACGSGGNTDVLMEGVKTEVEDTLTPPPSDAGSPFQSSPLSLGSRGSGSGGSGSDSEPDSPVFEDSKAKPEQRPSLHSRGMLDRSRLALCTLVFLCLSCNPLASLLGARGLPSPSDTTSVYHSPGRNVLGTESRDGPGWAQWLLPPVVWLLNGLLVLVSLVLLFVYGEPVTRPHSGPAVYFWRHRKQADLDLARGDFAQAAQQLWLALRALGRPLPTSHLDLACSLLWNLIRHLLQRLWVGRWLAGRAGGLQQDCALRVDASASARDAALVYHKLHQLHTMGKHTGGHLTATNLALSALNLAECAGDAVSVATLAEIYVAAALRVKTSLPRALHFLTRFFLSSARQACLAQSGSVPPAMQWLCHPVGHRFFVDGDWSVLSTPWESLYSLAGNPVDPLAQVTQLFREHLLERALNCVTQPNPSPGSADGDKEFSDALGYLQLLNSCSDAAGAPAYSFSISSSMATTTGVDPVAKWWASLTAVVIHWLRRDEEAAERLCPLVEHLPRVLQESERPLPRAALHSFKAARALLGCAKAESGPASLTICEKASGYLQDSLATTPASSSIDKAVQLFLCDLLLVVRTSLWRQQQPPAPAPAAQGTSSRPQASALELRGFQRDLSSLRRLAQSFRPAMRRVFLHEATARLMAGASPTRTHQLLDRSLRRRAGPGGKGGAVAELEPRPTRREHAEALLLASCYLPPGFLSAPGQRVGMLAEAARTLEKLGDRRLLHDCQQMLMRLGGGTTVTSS
SMILES,Activity [1],Activity (HepG2),inhibition [2]
CS(=O)(=O)c1ccc(O[C@H]2CC[C@H](Nc3c(Nc4ccc(Cl)cc4)c(=O)c3=O)CC2)cc1,47.9%,90.7%,107%
COC(=O)c1ccc(Nc2c(N[C@H]3CC[C@H](Oc4ccc(C(F)(F)F)cc4)CC3)c(=O)c2=O)cc1,91.6%,104.7%,47.5%
COc1ccc(Nc2c(N[C@H]3CC[C@H](Oc4ccc([N+](=O)[O-])cc4)CC3)c(=O)c2=O)cc1,34.3%,88.4%,57.6%
N#Cc1ccc(O[C@H]2CC[C@H](Nc3c(Nc4ccccc4)c(=O)c3=O)CC2)cc1,84.8%,90.6%,80.1%
O=C(Nc1ccc(Br)cc1)Nc1cccnc1,56.6%,,
CC(C)(C)c1ccc(Nc2c(N[C@H]3CC[C@H](Oc4ccc(S(C)(=O)=O)cc4)CC3)c(=O)c2=O)cc1,68.5%,95%,26.9%
COc1cccc(Nc2c(N[C@H]3CC[C@H](Oc4ccc([N+](=O)[O-])cc4)CC3)c(=O)c2=O)c1,64.3%,87.2%,18%
CC(C)(C)c1ccc(Nc2c(N[C@H]3CC[C@H](Oc4ccc(C#N)cc4)CC3)c(=O)c2=O)cc1,61.5%,87.4%,30.1%
O=c1c(Nc2ccc(Cl)cc2)c(N[C@H]2CC[C@H](Oc3ccc(C(F)(F)F)cc3)CC2)c1=O,103.6%,88.4%,39.1%
O=c1c(Nc2ccc(F)cc2)c(N[C@H]2CC[C@H](Oc3ccc([N+](=O)[O-])cc3)CC2)c1=O,52.9%,76.7%,23.9%
COc1cccc(Nc2c(N[C@H]3CC[C@H](Oc4ccc(C(F)(F)F)cc4)CC3)c(=O)c2=O)c1,69.9%,97.4%,41.5%
N#Cc1ccc(O[C@H]2CC[C@H](Nc3c(Nc4ccc(Cl)cc4)c(=O)c3=O)CC2)cc1,36.9%,96.2%,87.1%
O=c1c(Nc2ccc(F)cc2)c(N[C@H]2CC[C@H](Oc3ccc(C(F)(F)F)cc3)CC2)c1=O,59.3%,87.8%,40%
COC(=O)c1ccc(Nc2c(N[C@H]3CC[C@H](Oc4ccc(C#N)cc4)CC3)c(=O)c2=O)cc1,65.9%,99.1%,50.4%
COc1ccccc1Nc1c(N[C@H]2CC[C@H](Oc3ccc(C(F)(F)F)cc3)CC2)c(=O)c1=O,30%,77.8%,21.5%
CS(=O)(=O)c1ccc(O[C@H]2CC[C@H](Nc3c(Nc4ccccc4)c(=O)c3=O)CC2)cc1,76.1%,76.2%,76.2%

SMILES,Activity [1],Activity (HepG2),inhibition [2]
COc1ccc(Nc2c(N[C@H]3CC[C@H](Oc4ccc(C#N)cc4)CC3)c(=O)c2=O)cc1,70.6%,88.3%,35.7%
COc1ccc(Nc2c(N[C@H]3CC[C@H](Oc4ccc(S(C)(=O)=O)cc4)CC3)c(=O)c2=O)cc1,34.2%,93.9%,53.3%
CC(C)(C)c1ccc(Nc2c(N[C@H]3CC[C@H](Oc4ccc([N+](=O)[O-])cc4)CC3)c(=O)c2=O)cc1,50.4%,,42.8%
COc1ccc(Nc2c(N[C@H]3CC[C@H](Oc4ccc(C(F)(F)F)cc4)CC3)c(=O)c2=O)cc1,28.7%,94.8%,35.6%
O=c1c(Nc2ccccc2)c(N[C@H]2CC[C@H](Oc3ccc(C(F)(F)F)cc3)CC2)c1=O,77%,93.2%,70.8%
O=c1c(Nc2ccc(Cl)cc2)c(N[C@H]2CC[C@H](Oc3ccc([N+](=O)[O-])cc3)CC2)c1=O,49.8%,78.6%,24.3%
COc1cccc(Nc2c(N[C@H]3CC[C@H](Oc4ccc(S(C)(=O)=O)cc4)CC3)c(=O)c2=O)c1,62.5%,100.4%,51.1%
COc1ccccc1Nc1c(N[C@H]2CC[C@H](Oc3ccc(S(C)(=O)=O)cc3)CC2)c(=O)c1=O,34.4%,962%,22.2%
COC(=O)c1ccc(Nc2c(N[C@H]3CC[C@H](Oc4ccc([N+](=O)[O-])cc4)CC3)c(=O)c2=O)cc1,26.7%,91%,41.7%
N#Cc1ccc(O[C@H]2CC[C@H](Nc3c(Nc4ccc(F)cc4)c(=O)c3=O)CC2)cc1,87.4%,77%,46.2%
CC(C)(C)c1ccc(Nc2c(N[C@H]3CC[C@H](Oc4ccc(C(F)(F)F)cc4)CC3)c(=O)c2=O)cc1,68%,95.9%,32.6%
O=c1c(Nc2ccccc2)c(N[C@H]2CC[C@H](Oc3ccc([N+](=O)[O-])cc3)CC2)c1=O,82.7%,102.8%,59.6%
COc1cccc(Nc2c(N[C@H]3CC[C@H](Oc4ccc(C#N)cc4)CC3)c(=O)c2=O)c1,60.6%,91.4%,51.1%
CS(=O)(=O)c1ccc(O[C@H]2CC[C@H](Nc3c(Nc4ccc(F)cc4)c(=O)c3=O)CC2)cc1,24%,91.3%,
COC(=O)c1ccc(Nc2c(N[C@H]3CC[C@H](Oc4ccc(S(C)(=O)=O)cc4)CC3)c(=O)c2=O)cc1,22.3%,90.1%,40.5%

# From ChEMBL document CHEMBL6120940, “Discovery of N-Aryl-N'-[4-(aryloxy)cyclohexyl]squaramide-Based Inhibitors of LXR/SREBP-1c Signaling Pathway Ameliorating Steatotic Liver Disease: Navigating the Role of SIRT6 Activation” (J Med Chem, 2024)
